According to patent US20180117013A1, “METHODS OF TREATING LIVER DISEASE USING INDANE ACETIC ACID DERIVATIVES” (T3D THERAPEUTICS, INC., priority 2015, published 2018):

Test system: high fat diet ZDF rats
Test: NAFLD/NASH animal model, high fat diet ZDF rats
Assay type: in vivo, rat
Conditions: high fat diet ZDF male rats; all three doses (0.3, 1.0, 3 mg/kg) PO q.d. for 5 weeks
Description: Twelve week old ZDF male rats (n=6 per group) were acclimated for 3 weeks prior to study initiation then fed with either a high fat (D12492+0.5% added cholesterol with 55% wt/vol fructose in drinking water) or low fat (DL12405J) diets. The compound of Example 10 above, vehicle, or pioglitizone were administered by oral gavage q.d. for 5 weeks as described in Table 1.
Body weights were recorded weekly, and blood samples were collected from all animals at the end of weeks 4, 5, 6 and 7 following an overnight fast, and triglycerides, cholesterol, AST, ALT, insulin, and BG were measured in singlet. After week 8, the livers were harvested from all animals and weighed. The left lobe was placed in 10% NBF for NASH scoring by PAI (H % E staining, Oil Red O staining and Sirius Red staining). One half of the right lobe was snap-frozen for qPCR (to quantify type 1 collagen, insulin receptor, IGF-1, ceramide synthase 2, sphingomyelin phosphodiesterase 3, MCP-1 and IL-6). The remaining right lobe was snap-frozen for estimation of liver triglycerides and cholesterol.

CCc1oc(-c2ccc(OC)cc2)nc1CCOc1ccc2c(c1)CC[C@H]2CC(=O)O [Example 10, (S)-2-(5-(2-(5-ethyl-2-(4-methoxyphenyl)oxazol-4-yl)ethoxy)-2,3-dihydro-1H-inden-1-yl)acetic acid]
protection from NASH like symptoms: protection from NASH like symptoms
